In ChEMBL document CHEMBL1201862, “PubChem BioAssay data set” (2004):
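Assay format: 96-well plates, 48-hour exposure. At the GI50, growth is halved.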 Activity calls are given as the source filed them. Rule as the data show it: active = GI50 up to about 1.1 µM and inactive = higher.

What was measured:
Test in all cases: NCI tumour cell line growth inhibition, 48 h
DMS-114 = system: DMS-114
DLD-1 = system: DLD-1
KM12 = system: KM12
HCC 2998 = system: HCC 2998
HL-60 = system: HL-60
SNB-78 = system: SNB-78
LXFL 529 = system: LXFL 529
Malme-3M = system: Malme-3M
XF498 = system: XF498
SN12C = system: SN12C
MOLT-4 = system: MOLT-4
SK-OV-3 = system: SK-OV-3
MDA-MB-231 = system: MDA-MB-231
T47D = system: T47D
SW-620 = system: SW-620
Hs-578T = system: Hs-578T
MDA-N = system: MDA-N
IGROV-1 = system: IGROV-1
BT-549 = system: BT-549
HOP-18 = system: HOP-18

Structure (SMILES) | GI50 (DMS-114) | GI50 (DLD-1) | GI50 (KM12) | GI50 (HCC 2998) | GI50 (HL-60) | GI50 (SNB-78) | GI50 (LXFL 529) | GI50 (Malme-3M) | GI50 (XF498) | GI50 (SN12C) | GI50 (MOLT-4) | GI50 (SK-OV-3) | GI50 (MDA-MB-231) | GI50 (T47D) | GI50 (SW-620) | GI50 (Hs-578T) | GI50 (MDA-N) | GI50 (IGROV-1) | GI50 (BT-549) | GI50 (HOP-18)
Cc1cccc(NC(N)=S)c1 | > 100 µM (inactive) | > 100 µM (inactive) | > 100 µM (inactive) | > 100 µM (inactive) | > 100 µM (inactive) | > 100 µM (inactive) | > 100 µM (inactive) | > 100 µM (inactive) | > 100 µM (inactive) | > 100 µM (inactive) | > 100 µM (inactive) | > 100 µM (inactive) | – | – | – | – | – | – | – | –
COc1ccc(C(=C2C=CC=C2)c2ccc(OC)cc2)cc1 | – | – | 45.9 µM (inactive) | 19.3 µM (inactive) | 36.4 µM (inactive) | – | – | 28.8 µM (inactive) | – | 37.1 µM (inactive) | 14.5 µM (inactive) | 18.2 µM (inactive) | 16.1 µM (inactive) | 24.2 µM (inactive) | 32.6 µM (inactive) | 33.6 µM (inactive) | 37 µM (inactive) | 52 µM (inactive) | > 100 µM (inactive) | –
C#CCNC(=O)CCC(N)C(=O)O (stereo not drawn) | > 100 µM (inactive) | > 100 µM (inactive) | > 100 µM (inactive) | > 100 µM (inactive) | > 100 µM (inactive) | > 100 µM (inactive) | – | > 100 µM (inactive) | > 100 µM (inactive) | > 100 µM (inactive) | > 100 µM (inactive) | > 100 µM (inactive) | – | – | > 100 µM (inactive) | – | – | > 100 µM (inactive) | – | > 100 µM (inactive)
COc1c2c(c3ccccc3c1O)C1C=CC2C1 (stereo not drawn) | 4.95 µM (inactive) | 13.3 µM (inactive) | 17.6 µM (inactive) | 16.1 µM (inactive) | > 10 µM (inactive) | – | 3.82 µM (inactive) | 6.3 µM (inactive) | 14.7 µM (inactive) | 15.1 µM (inactive) | 13.2 µM (inactive) | > 10 µM (inactive) | – | – | 14.2 µM (inactive) | – | – | 20.8 µM (inactive) | – | 15.1 µM (inactive)
COC(=O)C1=C(C)N2CCSC2(C)C(C(=O)OC)C1c1cccc(Cl)c1 (stereo not drawn) | 19.8 µM (inactive) | – | 18.8 µM (inactive) | 21 µM (inactive) | 12.4 µM (inactive) | – | 20 µM (inactive) | – | – | – | 14.6 µM (inactive) | – | – | – | 37.1 µM (inactive) | – | – | 20.8 µM (inactive) | – | –
COc1ccc(-c2c3c(nc4[nH]c(=S)[nH]c(=S)c24)CCCC3)cc1OC | – | – | 30.9 µM (inactive) | – | 24.7 µM (inactive) | – | – | 29 µM (inactive) | – | 13.5 µM (inactive) | 19.9 µM (inactive) | 44.4 µM (inactive) | 18 µM (inactive) | 25.9 µM (inactive) | 35.8 µM (inactive) | 13.3 µM (inactive) | 34.3 µM (inactive) | 29.9 µM (inactive) | 48.9 µM (inactive) | –
Oc1cc2cc(O)nc(O)c2c(O)n1 | > 100 µM (inactive) | > 100 µM (inactive) | > 100 µM (inactive) | – | > 100 µM (inactive) | > 100 µM (inactive) | > 100 µM (inactive) | > 100 µM (inactive) | > 100 µM (inactive) | > 100 µM (inactive) | > 100 µM (inactive) | > 100 µM (inactive) | – | – | > 100 µM (inactive) | – | – | > 100 µM (inactive) | – | –
COP(=O)(OC)C(Cc1c[nH]c2ccccc12)NC(=O)OCc1ccccc1 (stereo not drawn) | – | – | – | > 100 µM (inactive) | > 100 µM (inactive) | – | – | – | – | > 100 µM (inactive) | – | > 100 µM (inactive) | > 100 µM (inactive) | 71.3 µM (inactive) | > 100 µM (inactive) | > 100 µM (inactive) | > 100 µM (inactive) | > 100 µM (inactive) | – | –
BrC(/C=N/Nc1nnc(-c2ccccc2)c(-c2ccccc2)n1)C(Br)c1ccccc1 (stereo not drawn) | 23.7 µM (inactive) | 23.8 µM (inactive) | 32.9 µM (inactive) | 30.3 µM (inactive) | 22.4 µM (inactive) | 17.7 µM (inactive) | – | 28.5 µM (inactive) | 25.3 µM (inactive) | 48.8 µM (inactive) | 17.7 µM (inactive) | 82.4 µM (inactive) | – | – | 37.8 µM (inactive) | – | – | 41.7 µM (inactive) | – | –
C[C@H](N)C(=O)N[C@@H]1[C@H]2C(=C(O)C[C@@H](O)[C@@H]2O)C(=O)O[C@@H]1C | > 100 µM (inactive) | > 100 µM (inactive) | > 100 µM (inactive) | > 100 µM (inactive) | > 80.4 µM (inactive) | – | – | > 100 µM (inactive) | > 82 µM (inactive) | > 100 µM (inactive) | > 100 µM (inactive) | > 100 µM (inactive) | – | – | > 100 µM (inactive) | – | – | > 100 µM (inactive) | – | 76.9 µM (inactive)
COC1=C(C)C(=O)C2=C(C1=O)[C@@H]1[C@@H]3Cc4c(OC(=O)CO)c(C)c(OC)c(O)c4[C@H](CNC(=O)C(C)=O)N3[C@@H](C#N)[C@H](C2)N1C | < 0.01 µM (active) | 0.0115 µM (active) | 0.108 µM (active) | 0.0472 µM (active) | < 0.0135 µM (active) | < 0.013 µM (active) | – | 0.0562 µM (active) | < 0.01 µM (active) | 0.013 µM (active) | 0.0286 µM (active) | 0.415 µM (active) | – | – | < 0.0164 µM (active) | – | – | 0.0177 µM (active) | – | 0.0382 µM (active)
